# Measured values published in PMC5808360, “Neutral Porphyrin Derivative Exerts Anticancer Activity by Targeting Cellular Topoisomerase I (Top1) and Promotes Apoptotic Cell Death without Stabilizing Top1-DNA Cleavage Complexes” (Journal of Medicinal Chemistry, 2017).
# Key:
# recombinant Top1 = molecular target: T1, recombinant Top1 (Homo sapiens, UniProt P11387); assay: Plasmid DNA relaxation assay with recombinant human Top1; type: biochemical; conditions: 1 μM compound, preincubated with Top1 before addition of DNA
# T1 construct: made in house; host or cells: Sf-9 insect cells (recombinant baculovirus, gift of Prof. James J. Champoux)
# T1 sequence (P11387 1-765): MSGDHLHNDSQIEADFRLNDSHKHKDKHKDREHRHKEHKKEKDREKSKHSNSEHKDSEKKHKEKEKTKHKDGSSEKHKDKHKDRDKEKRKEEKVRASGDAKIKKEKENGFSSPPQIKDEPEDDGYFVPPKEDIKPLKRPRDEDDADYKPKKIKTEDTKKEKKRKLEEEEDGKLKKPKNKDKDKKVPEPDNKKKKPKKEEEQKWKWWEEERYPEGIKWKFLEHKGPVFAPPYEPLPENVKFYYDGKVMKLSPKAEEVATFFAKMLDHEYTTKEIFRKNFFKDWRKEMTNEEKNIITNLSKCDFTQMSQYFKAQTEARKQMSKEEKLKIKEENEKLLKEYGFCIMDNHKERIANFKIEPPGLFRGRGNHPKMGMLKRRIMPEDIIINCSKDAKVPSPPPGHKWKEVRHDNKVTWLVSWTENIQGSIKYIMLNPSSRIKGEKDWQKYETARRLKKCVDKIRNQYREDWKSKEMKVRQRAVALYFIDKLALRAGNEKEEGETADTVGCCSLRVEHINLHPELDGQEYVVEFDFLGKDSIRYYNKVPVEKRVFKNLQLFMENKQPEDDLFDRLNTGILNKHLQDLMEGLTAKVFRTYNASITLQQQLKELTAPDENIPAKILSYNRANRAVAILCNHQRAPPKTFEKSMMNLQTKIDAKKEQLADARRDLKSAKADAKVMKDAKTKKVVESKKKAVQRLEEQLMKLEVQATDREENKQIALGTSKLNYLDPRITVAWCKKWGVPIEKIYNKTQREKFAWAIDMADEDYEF
# Source text: To test the inhibitory effect of the synthetic library of neutral porphyrin compounds (Scheme 1) on human Top1 activity, we performed the DNA relaxation assays in a standard assay mixture containing the plasmid DNA and recombinant Top1.[6],[13],[36],[37]Table 1 enlists the compounds with relative efficiencies of Top1 inhibition as a measure of their effective drug concentrations (EC50 value), indicating the highest activity for the selected neutral porphyrin derivative compound 8.
# To examine the mechanism of Top1 inhibition with compound 8, we used variable incubation conditions in the relaxation assays (Figure 1A). […] Next, to test the impact of compound 8 interaction with Top1 in the relaxation assays, we preincubated Top1 with compound 8 at indicated concentrations (Figure 1A, lanes 5–8) separately before the addition of DNA.[6],[13],[36],[38]
# The recombinant human Top1 was purified from Sf-9 insect cells, infected with the recombinant baculovirus (a kind gift from Prof. James. J. Champoux) as described previously.[6],[13]
# The type 1 DNA topoisomerase is assayed by decreased mobility of the relaxed isomers of supercoiled pBS (SK^+) DNA in 1% agarose gel. […]
# [1] = molecular target: T2, Top1-DNA cleavage complexes (Top1cc) (Homo sapiens, UniProt P11387); assay: Plasmid DNA cleavage assay (Top1cc formation); type: biochemical
# T2 construct: made in house; host or cells: Sf-9 insect cells (recombinant baculovirus, gift of Prof. James J. Champoux)
# T2 sequence (P11387 1-765): T1 sequence (P11387 1-765)
# Description: Because camptothecin (CPT) stabilizes Top1-DNA cleavable complexes (Top1cc) to inhibit Top1 activity,[3],[5],[37] we investigated compound 8 induced Top1cc formation with the plasmid DNA cleavage assays.[6],[8],[36],[37] Top1 mediated conversion of closed circular DNA (form I) to nicked circular DNA (form II) in the presence of specific inhibitors is referred to as “cleavable complex”. […] To further investigate the impact of compound 8 on preformed Top1cc, we preincubated Top1 with plasmid DNA and CPT (Figure 2B) before the addition of compound 8 in the cleavage assays.
# Plasmid DNA cleavage assay was carried out as described previously.[6],[8] For equilibrium cleavage assays, 25-mer duplex of oligonucleotide containing a Top1 binding motif was labeled and annealed as described previously.[13],[36],[38] Samples were analyzed by 12% sequencing gel electrophoresis, dried, and exposed on PhosphorImager screens and imaged with Typhoon FLA 7000 (GE Healthcare, U.K.).
# Top1cc in MCF7 cells = molecular target: T3, Top1cc in MCF7 cells (Homo sapiens, UniProt P11387); assay: Immuno complex of enzyme (ICE) bioassay; type: cell-based
# T3 construct: endogenous in cells; host or cells: MCF7 cells
# T3 sequence (P11387 2-765 limits assumed): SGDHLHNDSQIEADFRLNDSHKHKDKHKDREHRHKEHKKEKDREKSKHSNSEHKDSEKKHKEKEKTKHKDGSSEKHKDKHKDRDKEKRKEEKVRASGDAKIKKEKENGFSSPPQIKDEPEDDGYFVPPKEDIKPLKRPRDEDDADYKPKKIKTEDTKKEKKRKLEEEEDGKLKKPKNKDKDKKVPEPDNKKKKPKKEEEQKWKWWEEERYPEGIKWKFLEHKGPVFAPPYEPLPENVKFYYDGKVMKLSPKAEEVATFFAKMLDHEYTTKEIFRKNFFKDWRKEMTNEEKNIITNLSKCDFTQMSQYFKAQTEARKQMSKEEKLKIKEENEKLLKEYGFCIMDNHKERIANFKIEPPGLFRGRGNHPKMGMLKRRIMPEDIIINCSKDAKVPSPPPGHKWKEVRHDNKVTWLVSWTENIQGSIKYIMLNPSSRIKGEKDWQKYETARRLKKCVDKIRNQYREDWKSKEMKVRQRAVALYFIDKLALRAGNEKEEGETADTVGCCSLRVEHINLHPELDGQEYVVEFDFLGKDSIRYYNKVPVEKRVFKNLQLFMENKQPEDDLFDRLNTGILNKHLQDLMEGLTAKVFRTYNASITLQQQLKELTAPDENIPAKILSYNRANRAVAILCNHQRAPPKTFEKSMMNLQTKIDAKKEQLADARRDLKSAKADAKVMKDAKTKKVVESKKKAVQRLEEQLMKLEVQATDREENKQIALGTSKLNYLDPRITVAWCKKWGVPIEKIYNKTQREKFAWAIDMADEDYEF
# Description: Because compound 8 stimulates apoptosis (Figure 4C and Figure 5B), we examined accumulation of apoptotic Top1-DNA complexes in compound 8 treated cells (Figure 4D) by ICE bioassays.[15],[16] Top1cc related to apoptosis is due to secondary DNA modifications and is independent from direct Top1-drug interaction.[15]−[17] […] Therefore, proteasome mediated degradation of Top1 triggers compound 8 induced apoptosis without stabilizing apoptotic Top1-DNA covalent complexes. […] Genomic DNA was prepared and was briefly sonicated. Varying concentrations of DNA were spotted onto nitrocellulose membrane (Millipore, USA) using a slot-blot vacuum system (Biorad, USA). Immunoblotting was carried out with antihuman Top1 antibodies as described.[41]
compound,measurement,setting,value
"CN(C)c1ccc(-c2c3nc(c(-c4ccc(N(C)C)cc4)c4ccc([nH]4)c(-c4ccc(C(=O)O)cc4)c4nc(c(-c5ccc(C(=O)O)cc5)c5ccc2[nH]5)C=C4)C=C3)cc1 [Compound 8, 5,10-Bis(4-carboxyphenyl)-15,20-bis(4-dimethylaminophenyl)porphyrin]",inhibition at 1 µM,recombinant Top1,85 to 95%
same,Effect on CPT-induced preformed Top1cc in plasmid DNA cleavage assay,"[1]; Top1 preincubated with plasmid DNA and CPT before addition of compound, dose dependent",completely abrogated CPT-induced Top1cc
same,Stabilization of Top1cc in plasmid DNA cleavage assay,"[1]; recombinant human Top1 100 fmol, pBS (SK+) DNA, 37 °C, 30 min",failed to stabilize Top1cc
same,Top1 in DNA-containing fractions (apoptotic Top1cc),"Top1cc in MCF7 cells; 20 μM, 12 h",absence of Top1 in the DNA-containing fractions
same,Effect on CPT-induced cellular Top1-DNA complexes,Top1cc in MCF7 cells; CPT 10 μM 6 h before addition of compound 8 20 μM for 6 h,abrogates CPT-induced cellular Top1-DNA complexes
